Test results as given in patent US20090203877A1, “X-RAY-DENSE CONJUGATE” (Eberhard-Karls-Universitaet Tuebingen Universitaetsklinkum, priority 2006, published 2009).
Entries after “also recorded” stand apart in the source; their conditions may differ.

Assays:
[1] = tested on: human malignant LN18 glioma cells; assay: Uptake/staining of cells by FITC-labelled conjugates (CLSM, FACS, semi-thin sections); format: cell-based; conditions: 20 min; for stained cells: 260 μM in PBS; for nuclear staining of cells (CLSM), in words: 260 μM
Procedure: The human malignant U373 and LN18 glioma cells were cultivated in 75 cm^2 culture flasks (Corning Costar) (70% confluency) under the conditions as described under 1.4, detached from the flask bottom with Accutase™ (PAA Laboratories) and in the following distributed on Eppendorf tubes (Eppendorf, Hamburg, Germany) (6×10^6 per tube). The cells in the first tube serve as a control (only PBS buffer only). The cells in the other ten tubes were each incubated with benzoic acid (BA), monoiodobenzoic acid (MIBA) or diiodobenzoic acid (DIBA) alone (260 μM), conjugate 3 alone (260 μM), conjugate 3 plus either BA, MIBA or DIBA (260 μM), respectively, and the conjugates 9, 10, and 11 alone. (260 μM).
After an incubation of 20 minutes at 37° C./5% CO2 the cells were washed three times with PBS buffer and centrifuged at 800 rpm (rounds per minute) for 5 minutes. The fluorescence was measured in Becton Dickinson FACSCalibur as described under 1.4. The computer tomography was performed as described under 1.5.1. The examinations were repeated two times. […]
The FACS analysis was performed as described under 1.4. The assay was repeated two times.
For the CT and FACS examinations human LN18 and U373 glioma cells were cultivated in 75 cm^2 culture flasks (70% confluency) (conditions as described under section 1). Accutase™ (PAA Laboratories) was added to detach the cell from the culture bottom. The cells were collected and then distributed on Eppendorf-tubes (6×10^6 cells per tube). […] The next three tubes were used for the coincubation of the cells either with trichlorobenzoic acid (TCBA), trifluorobenzoic acid (TFBA) or tribromophenyl Isocyanat (TBPI) and the NLS-FITC-conjugate 3 (260 μM). As control cells were used which were only either incubated with CIBA, FIBA, TBPI (in each case 260 μM in PBS) or with PBS-buffer (native control) alone. […] The computer tomography and FACS analysis of the cell centrifuges were performed as described in 1.5.1 or 1.4, respectively for three times.
All measurements were performed on living cells.
All measurements were performed on living cells in triplicates.
A part of the cells which were stained for the FACS analysis, was fixed by paraformaldehyl with 2% Agar, dehydrogenized in ethanol, embedded in Lowicryl K4M (Polysciences, Eppelheim, Germany) and according to the information of the manufacturer UV-polymerised at room temperature. Semi-thin sections (about 0.4 μm) were cut and evaluated by means of fluorescence microscopy.

[2] = tested on: human malignant U373 glioma cells; assay: Cell viability / cell death (MTT test, propidium iodide, annexin-V-Alexa 568 binding, FACS scatter morphology); conditions: for binding of annexin-V-Alexa 568 reagent (phosphatidyl serine) / cytotoxic effects: 260 μM in 0.1% DMSO/PBS; for binding of annexin-V-Alexa 568 reagent (phosphatidyl serine) / cytotoxic effects / cytotoxic effects / signs of cell death: substance alone; for cytotoxic effects / signs of cell death: 260 μM in PBS
Procedure: Human malignant U373-glioma cells were grown to 70% confluency in RPMI-1640 Ready Mix Medium containing L-Glutamine and 10% FBS-Gold (PAA laboratories, Pasching, Austria) at 37° C., 5% CO2 (vol/vol), in 4-well-plates (NUNC, Wiesbaden, Germany) with about 300,000 cells pro well. […] After this, the cells were washed three times with buffer and then incubated with Ready Mix Medium again. Cell viability was then assessed by the addition of methyl-thiazoyl-tetrazolium (MTT) salt (Sigma-Aldrich, Germany) at a concentration of 15 mg/ml. After 20 minutes, the production of formazan was investigated. When blue formazan granules were detected, propidium iodine (PI) was added to the medium (1 μM PI; Molecular Probes, Eugene, Oreg., USA) to detect cells with damaged cell membranes. […] Pictures were taken with a 3-CCD color video camera (MC3254P, Sony, Japan) and the Axiovision Software (Carl Zeiss, Jena, Germany). The intensity of cell fluorescence was recorded at the exposure time necessary for the production of the fluorescence images.
After imaging, Accutase™ (PAA laboratories, Pasching, Austria) was added to the wells to achieve detachment of the cells for further FACS analysis. Fluorescence was measured in a Becton Dickinson FACSCalibur. A total of 20,000 events per sample were analyzed. The investigations were performed in triplicate.
A sample of cells from each Eppendorf tube was subjected to the MTT test (described under 1.4) to determine microscopically whether the cells were viable. In vitro CT of the cell pellets was performed with a Somatom Sensation 16 (Siemens) which is used for routine clinical investigations.
Cells were incubated for 20 minutes with each of the conjugates dissolved in 0.1% DMSO/PBS at 260 μm. The cells were also incubated with TIBA and both of the non-TIBA-containing conjugates (3 and 4) separately in 0.1% DMSO/OBS at 260 μm. Both TIBA and the conjugates were dissolved in 0.1% DMSO/PBS at 260 μm for incubation due to the insolubility of TIBA (but not the conjugates) in pure PBS. As controls, the cells were incubated with PBS alone, 0.1% DMSO/PBS alone, and TIBA alone (260 μm in 0.1% DMSO/PBS).
The detection of phosphatidyl serine in the outer membrane leaflet of apoptotic cells was performed with the Annexin-V-Alexa™-568-reagent according to manufacturer's protocol (Roche Molecular Biochemicals, Indianapolis, USA). The confocal laser-scanning microscopy was performed on an inverted LSM 510 laser-scanning microscope (Carl Zeiss, Jena, Germany) (objectives: LD Achroplan 40×0.6, Plan Neofluar 20×0.50, 40×0.75). For fluorescence excitation, the 488 nm line of an argon-ion laser and the […] line of a helium-neon laser with appropriate beam splitters and barrier filters were used for FITC and Alexa respectively. Superimposed images of FITC- and Alexa-stained samples were created by overlaying coincident views. All measurements were performed on living, non-fixed cells.
Human malignant LN18 and U373 glioma cells were cultivated in four-well plates (NUNC, Wiesbaden, Germany) (about 300,000 cells per well) as described under 1.5. […] The cells were also coincubated either with CIBA, FIBA or TBPI as well as the NLS-FITC conjugate 3 (each 260 μM). As a control cells were used which were only incubated either with CIBA, FIBA or TBPI (260 μM in PBS) alone. After the incubation the cells were washed three times with PBS and in the following again incubated in Ready Mix Medium. The FITC-labelled conjugates and the Alexa-Annexin for the detection of phosphatidylserine as a signal of the cell death were localized with the confocal laser microscopy (CLSM) as in 1.6.1. All measurements were performed on living cells.

[3] = tested on: human malignant LN18 glioma cells; assay: Cell viability / cell death (annexin-V-Alexa 568 binding, propidium iodide, FACS scatter morphology); format: cell-based; conditions: 260 μM, 20 min, substance alone
Procedure: All measurements were performed on living, non-fixed cells. […] All measurements were performed on living cells. […] All measurements were performed on living cells in triplicates. […] All measurements were performed on living cells.

Row | Substance | stained cells [1] [%] | nuclear staining of cells (CLSM), in words [1] | binding of annexin-V-Alexa 568 reagent (phosphatidyl serine) / cytotoxic effects ([2]; 20 min) | cytotoxic effects / signs of cell death ([2]; 20 min) | binding of annexin-V-Alexa 568 reagent / cell viability ([2]; conjugate co-incubated with free TIBA (260 μM)) | cell viability / cell death ([2]; non-TIBA conjugates, 26 μM, 260 μM and 2.6 mM) | cell death / vitality (annexin-V-Alexa 568, propidium iodide) [3] | cell viability (MTT formazan, propidium iodide uptake) ([2]; 26 μM, 20 min) | cellular morphology, side scatter versus forward scatter FACS ([2]; 26 μM, compared to PBS controls)
1 | PKKKRKVK(FITC)GGK (FITC, GGK linker) [conjugate 3, FITC-labelled correct NLS of the SV 40 T antigen without TIBA] | 9 | nuclear staining of few cells; also recorded: does only stain the nucleus of few cells | did not result in binding | did not show any signs of cell death; also recorded: without a sign of cell dead | fails to result in binding; also recorded: did not result in any changes | No cell death | remain vital; also recorded: did not show any signs of cell death; also recorded: without a sign of cell dead |  | 
2 | PKKKRKVK(FITC)GGK(BA) (FITC, GGK linker, benzoic acid) [conjugate 9, FITC-labelled NLS of the SV 40 T antigen with non-iodized benzoic acid] | 9 | nuclear staining of few cells; also recorded: the staining rate did not increase |  | no signs of cell death |  |  | remain vital; also recorded: no signs of cell death; also recorded: remain viable |  | 
3 | PKKKRKVK(FITC)GGK(TIBA) (FITC, GGK linker, TIBA) [conjugate 1] |  |  | binding of annexin-V-Alexa™ 568 reagent was found; also recorded: Most of these cells show the expression of phosphatidyl serine in the outer membrane leaflet |  |  |  |  | living cells; also recorded: no signs of cell death | no changes in the cellular morphology
